Measurements reported in the OligoGym collection.
Values joined by “and” are separate entries in the source; they are usually repeats but may differ in a detail not shown here. Equal entries are not always repeated. HELM strings list units from the 5' end as sugar, base in round brackets, then linkage (d deoxyribose, r ribose, m 2'-O-methyl, p phosphodiester). Strings are as the collection lists them, not checked against the first reports. ss, as = sense and antisense strand; [lna] = locked nucleic acid (LNA); [una] = unlocked nucleic acid; [s4r] = 4'-thioribose; [fl2r] = 2'-fluoro

details: siRNA
Also: test system not given here.

Substance	target mRNA knockdown
RNA1{m(G)p.r(A)p.m(A)p.r(A)p.m(C)p.r(U)p.m(G)p.r(G)p.m(U)p.r(A)p.m(C)p.r(U)p.m(U)p.r(U)p.m(C)p.r(C)p.m(C)p.r(C)p.m(C)p.r(T)p.r(T)}|RNA2{r(G)p.r(G)p.r(G)p.r(G)p.r(G)p.r(A)p.r(A)p.r(A)p.r(G)p.r(U)p.r(A)p.r(C)p.r(C)p.r(A)p.r(G)p.r(U)p.r(U)p.r(U)p.r(C)p.r(T)p.r(T)}$$$RNA1{StrandType:ss}|RNA2{StrandType:as}$	57%
RNA1{[fl2r](A)p.r(G)p.[fl2r](C)p.r(C)p.[fl2r](C)p.r(A)p.[fl2r](G)p.r(A)p.[fl2r](U)p.r(A)p.[fl2r](G)p.r(C)p.[fl2r](U)p.r(C)p.[fl2r](U)p.r(U)p.[fl2r](C)p.r(A)p.[fl2r](G)p.r(T)p.r(T)}|RNA2{r(C)p.r(U)p.r(G)p.r(A)p.r(A)p.r(G)p.r(A)p.r(G)p.r(C)p.r(U)p.r(A)p.r(U)p.r(C)p.r(U)p.r(G)p.r(G)p.r(G)p.r(C)p.r(U)p.r(T)p.r(T)}$$$RNA1{StrandType:ss}|RNA2{StrandType:as}$	35%
RNA1{m(G)p.r(A)p.m(G)p.r(A)p.m(G)p.r(A)p.m(G)p.r(A)p.m(C)p.r(G)p.m(G)p.r(U)p.m(G)p.r(G)p.m(A)p.r(A)p.m(G)p.r(A)p.m(A)p.r(T)p.r(T)}|RNA2{r(U)p.r(U)p.r(C)p.r(U)p.r(U)p.r(C)p.r(C)p.r(A)p.r(C)p.r(C)p.m(G)p.r(U)p.r(C)p.r(U)p.r(C)p.r(U)p.r(C)p.r(U)p.r(C)p.r(T)p.r(T)}$$$RNA1{StrandType:ss}|RNA2{StrandType:as}$	56%
RNA1{r(G)p.r(C)p.[fl2r](U)p.r(G)p.r(A)p.r(A)p.r(C)p.[fl2r](U)p.r(A)p.r(G)p.r(U)p.r(C)p.r(G)p.r(A)p.r(A)p.r(A)p.r(G)p.r(A)p.r(A)p.r(T)p.r(T)}|RNA2{r(U)p.r(U)p.r(C)p.r(U)p.r(U)p.r(U)p.r(C)p.r(G)p.r(A)p.r(C)p.[fl2r](U)p.r(A)p.r(G)p.r(U)p.r(U)p.[fl2r](C)p.r(A)p.r(G)p.r(C)p.r(T)p.r(T)}$$$RNA1{StrandType:ss}|RNA2{StrandType:as}$	78%
RNA1{m(A)p.m(A)p.m(G)p.m(G)p.m(A)p.m(G)p.m(A)p.m(U)p.m(C)p.m(A)p.m(A)p.m(C)p.m(A)p.m(U)p.m(U)p.m(U)p.m(U)p.m(C)p.m(A)p.r(T)p.r(T)}|RNA2{r(U)p.r(G)p.r(A)p.r(A)p.r(A)p.r(A)p.r(U)p.r(G)p.r(U)p.r(U)p.r(G)p.r(A)p.r(U)p.r(C)p.r(U)p.r(C)p.r(C)p.m(U)p.m(U)p.r(T)p.r(T)}$$$RNA1{StrandType:ss}|RNA2{StrandType:as}$	77%
RNA1{r(G)p.r(U)p.r(A)p.r(U)p.r(G)p.r(A)p.r(C)p.r(C)p.r(G)p.r(A)p.r(C)p.r(U)p.r(A)p.r(C)p.r(G)p.r(C)p.r(G)p.r(U)p.r(A)p.r(T)p.r(T)}|RNA2{r(U)p.r(U)p.[una](C)p.r(A)p.r(G)p.r(U)p.r(G)p.r(U)p.r(G)p.r(A)p.r(U)p.r(G)p.r(A)p.r(C)p.r(A)p.r(C)p.r(U)p.r(U)p.r(G)p.r(T)p.r(T)}$$$RNA1{StrandType:ss}|RNA2{StrandType:as}$	45% and 50%
RNA1{r(A)p.r(U)p.r(C)p.r(U)p.r(G)p.r(A)p.r(A)p.r(G)p.r(A)p.r(A)p.r(G)p.r(G)p.r(A)p.r(G)p.r(A)p.r(A)p.r(A)p.r(A)p.r(A)p.d(T)p.d(T)}|RNA2{r(U)p.r(U)p.r(U)p.r(U)p.r(U)p.r(C)p.r(U)p.r(C)p.r(C)p.r(U)p.r(U)p.r(C)p.r(U)p.r(U)p.r(C)p.r(A)p.r(G)p.r(A)p.r(U)p.[lna](T)p.[lna](T)}$$$RNA1{StrandType:ss}|RNA2{StrandType:as}$	93%
RNA1{m(G)p.r(A)p.m(A)p.r(U)p.m(A)p.r(A)p.m(C)p.r(C)p.m(U)p.r(G)p.m(A)p.r(A)p.m(C)p.r(G)p.m(U)p.r(C)p.m(A)p.r(C)p.m(C)p.r(T)p.r(T)}|RNA2{r(G)p.r(G)p.r(U)p.r(G)p.r(A)p.r(C)p.r(G)p.r(U)p.r(U)p.r(C)p.r(A)p.r(G)p.r(G)p.r(U)p.r(U)p.r(A)p.r(U)p.r(U)p.r(C)p.r(T)p.r(T)}$$$RNA1{StrandType:ss}|RNA2{StrandType:as}$	17%
RNA1{[s4r](C)p.[s4r](G)p.r(U)p.r(A)p.r(C)p.r(G)p.r(C)p.r(G)p.r(G)p.r(A)p.r(A)p.r(U)p.r(A)p.r(C)p.r(U)p.r(U)p.r(C)p.r(G)p.r(A)p.r(T)p.r(T)}|RNA2{r(U)p.r(C)p.r(G)p.r(A)p.r(A)p.r(G)p.r(U)p.r(A)p.r(U)p.r(U)p.r(C)p.r(C)p.r(G)p.r(C)p.r(G)p.r(U)p.r(A)p.r(C)p.r(G)p.r(T)p.r(T)}$$$RNA1{StrandType:ss}|RNA2{StrandType:as}$	95.5%
RNA1{r(C)p.r(U)p.r(C)p.r(C)p.r(C)p.r(C)p.r(A)p.r(G)p.r(U)p.r(C)p.r(U)p.r(C)p.r(U)p.r(C)p.r(U)p.r(U)p.m(A)p.r(A)p.r(A)p.r(T)p.r(T)}|RNA2{r(U)p.r(U)p.r(U)p.m(A)p.r(A)p.r(G)p.r(A)p.r(G)p.r(A)p.r(G)p.r(A)p.r(C)p.r(U)p.r(G)p.r(G)p.r(G)p.r(G)p.r(A)p.r(G)p.r(T)p.r(T)}$$$RNA1{StrandType:ss}|RNA2{StrandType:as}$	69%
RNA1{[s4r](A)p.[s4r](A)p.[s4r](A)p.[s4r](C)p.[s4r](A)p.[s4r](U)p.r(G)p.r(C)p.r(A)p.r(G)p.r(A)p.r(A)p.r(A)p.[s4r](A)p.[s4r](U)p.[s4r](G)p.[s4r](C)p.[s4r](U)p.[s4r](G)p.r(T)p.r(T)}|RNA2{r(C)p.r(A)p.r(G)p.r(C)p.r(A)p.r(U)p.r(U)p.r(U)p.r(U)p.r(C)p.r(U)p.r(G)p.r(C)p.r(A)p.r(U)p.[s4r](G)p.[s4r](U)p.[s4r](U)p.[s4r](U)p.r(T)p.r(T)}$$$RNA1{StrandType:ss}|RNA2{StrandType:as}$	84.4%
RNA1{[fl2r](A)p.r(G)p.r(A)p.[fl2r](G)p.r(A)p.[fl2r](A)p.r(G)p.[fl2r](G)p.[fl2r](G)p.r(C)p.r(G)p.[fl2r](U)p.r(C)p.r(U)p.r(C)p.[fl2r](U)p.r(A)p.[fl2r](C)p.r(A)p.r(T)p.r(T)}|RNA2{r(U)p.r(G)p.r(U)p.r(A)p.r(G)p.r(A)p.r(G)p.r(A)p.r(C)p.r(G)p.r(C)p.r(C)p.r(C)p.r(U)p.r(U)p.r(C)p.r(U)p.r(C)p.r(U)p.r(T)p.r(T)}$$$RNA1{StrandType:ss}|RNA2{StrandType:as}$	75%
RNA1{m(A)p.r(U)p.m(C)p.r(A)p.m(C)p.r(A)p.m(A)p.r(A)p.m(C)p.r(C)p.m(C)p.r(C)p.m(U)p.r(A)p.m(G)p.r(A)p.m(G)p.r(G)p.m(G)p.r(T)p.r(T)}|RNA2{r(C)p.r(C)p.r(C)p.r(U)p.r(C)p.r(U)p.r(A)p.r(G)p.r(G)p.r(G)p.r(G)p.r(U)p.r(U)p.r(U)p.r(G)p.r(U)p.r(G)p.r(A)p.r(U)p.r(T)p.r(T)}$$$RNA1{StrandType:ss}|RNA2{StrandType:as}$	9%
RNA1{r(U)p.r(C)p.r(C)p.r(C)p.r(U)p.r(U)p.r(C)p.m(C)p.r(A)p.r(C)p.r(C)p.r(G)p.r(C)p.m(C)p.r(A)p.m(U)p.r(A)p.r(U)p.r(U)p.r(T)p.r(T)}|RNA2{r(A)p.r(A)p.m(U)p.r(A)p.m(U)p.r(G)p.r(G)p.r(C)p.r(G)p.r(G)p.m(U)p.r(G)p.r(G)p.r(A)p.r(A)p.r(G)p.r(G)p.r(G)p.r(A)p.r(T)p.r(T)}$$$RNA1{StrandType:ss}|RNA2{StrandType:as}$	47%
RNA1{r(A)p.m(G)p.r(A)p.m(U)p.r(G)p.m(U)p.m(U)p.m(C)p.m(U)p.m(C)p.r(G)p.m(U)p.r(A)p.r(A)p.m(G)p.r(G)p.r(A)p.m(C)p.r(G)p.r(T)p.r(T)}|RNA2{r(C)p.r(G)p.r(U)p.r(C)p.r(C)p.r(U)p.r(U)p.r(A)p.r(C)p.r(G)p.r(A)p.r(G)p.r(A)p.r(A)p.r(C)p.r(A)p.r(U)p.r(C)p.r(U)p.r(T)p.r(T)}$$$RNA1{StrandType:ss}|RNA2{StrandType:as}$	53%
RNA1{m(C)p.r(C)p.m(G)p.r(A)p.m(A)p.r(G)p.m(A)p.r(C)p.m(G)p.r(A)p.m(A)p.r(G)p.m(C)p.r(U)p.m(A)p.r(U)p.m(G)p.r(A)p.m(A)p.r(T)p.r(T)}|RNA2{r(U)p.r(U)p.r(C)p.r(A)p.r(U)p.r(A)p.m(G)p.r(C)p.r(U)p.r(U)p.r(C)p.m(G)p.r(U)p.r(C)p.r(U)p.r(U)p.r(C)p.m(G)p.m(G)p.r(T)p.r(T)}$$$RNA1{StrandType:ss}|RNA2{StrandType:as}$	51%
RNA1{r(C)p.r(U)p.r(C)p.r(U)p.r(G)p.r(G)p.r(C)p.r(C)p.r(U)p.r(U)p.r(U)p.r(C)p.r(U)p.r(C)p.r(U)p.r(C)p.m(U)p.r(A)p.r(G)p.r(T)p.r(T)}|RNA2{r(C)p.r(U)p.r(A)p.r(G)p.r(A)p.r(G)p.r(A)p.r(G)p.r(A)p.r(A)p.r(A)p.r(G)p.r(G)p.r(C)p.r(C)p.r(A)p.r(G)p.r(A)p.r(G)p.r(T)p.r(T)}$$$RNA1{StrandType:ss}|RNA2{StrandType:as}$	47%
RNA1{r(G)p.r(A)p.r(A)p.r(G)p.r(A)p.r(G)p.r(C)p.r(C)p.m(U)p.m(A)p.m(C)p.r(A)p.m(C)p.r(A)p.r(A)p.r(C)p.r(C)p.r(C)p.r(U)p.r(T)p.r(T)}|RNA2{r(A)p.r(G)p.r(G)p.r(G)p.r(U)p.m(U)p.r(G)p.m(U)p.r(G)p.m(U)p.r(A)p.r(G)p.r(G)p.r(C)p.r(U)p.r(C)p.r(U)p.r(U)p.r(C)p.r(T)p.r(T)}$$$RNA1{StrandType:ss}|RNA2{StrandType:as}$	74%
RNA1{[s4r](A)p.[s4r](A)p.r(A)p.r(C)p.r(A)p.r(U)p.r(G)p.r(C)p.r(A)p.r(G)p.r(A)p.r(A)p.r(A)p.r(A)p.r(U)p.r(G)p.r(C)p.r(U)p.r(G)p.r(T)p.r(T)}|RNA2{r(C)p.r(A)p.r(G)p.r(C)p.r(A)p.r(U)p.r(U)p.r(U)p.r(U)p.r(C)p.r(U)p.r(G)p.r(C)p.r(A)p.r(U)p.r(G)p.r(U)p.r(U)p.r(U)p.r(T)p.r(T)}$$$RNA1{StrandType:ss}|RNA2{StrandType:as}$	69.5%
RNA1{r(A)p.r(G)p.r(A)p.r(A)p.r(G)p.r(G)p.r(A)p.m(C)p.m(U)p.r(A)p.m(C)p.m(U)p.r(A)p.r(A)p.m(C)p.m(C)p.m(U)p.m(C)p.m(C)p.r(T)p.r(T)}|RNA2{r(G)p.r(G)p.r(A)p.r(G)p.r(G)p.r(U)p.r(U)p.r(A)p.r(G)p.r(U)p.r(A)p.r(G)p.r(U)p.r(C)p.r(C)p.r(U)p.r(U)p.r(C)p.r(U)p.r(T)p.r(T)}$$$RNA1{StrandType:ss}|RNA2{StrandType:as}$	80%
